In patent publication US20190225670A1, “COMPOUNDS AND METHODS FOR ACTIVATING TIE2 SIGNALING” (ASCLEPIX THERAPEUTICS, LLC, priority 2016, published 2019):
Entries after “also recorded” stand apart in the source; their conditions may differ.

Tests used:
[1] = target: T1, α5 and β1 integrin subunits (Homo sapiens, UniProt P05556+P08648); assay: Duolink protein interaction analysis; type: cell-based; details: MEC monolayers; 100 μM AXT107 vs vehicle
T1 construct: host or cells: human dermal microvascular endothelial cells (MEC)
Experimental: Additionally, changes in the interaction between the α5 s and β1 subunits were further investigated using Duolink™ technology which can visualize individual interactions between α5 and β1 integrin subunits as distinct spots by fluorescence microscopy.
Glass bottom, 96-well plates were coated with FN1, seeded with MECs, as described above for the immunofluorescence experiments. After growing for forty-eight hours, cells were serum starved for three hours, treated with 100 μM AXT107 or DMSO vehicle for ninety minutes, washed twice with dPBS containing Ca^2+ and Mg^2+, and fixed in 10% neutral buffered formalin. Cells were blocked in 5% normal goat serum; 0.3% Triton X-100 in dPBS containing Ca^2+ and Mg^2+ for one hour and incubated overnight at 4° C. with rabbit anti-α5 integrin and mouse anti-β1 integrin antibodies in PBS containing Ca^2+ and Mg^2+ with 1% BSA and 0.1% Triton X-100. Interaction spots were developed using DUOLINK green detection reagent according to the manufacturer's instructions and detected using the BD pathway 855 system.

Tie2 = assay: Western blot of phospho-Tie2 (Y992) in MEC monolayers treated with AXT107 and angiopoietin; type: cell-based, human
Experimental: (§1) A confluent monolayer of human microvascular endothelial cells (HMEC) was serum starved with EBM-2 overnight. After a 90 min treatment with AXT107 at concentrations of 0, 10, 32, and 100 μM, the cells were treated for 15 min with 1 mM sodium orthovanadate. Next the cells were treated with Angiopoietin-2 (Ang-2) at 200 ng/mL for 15 min. Following cell lysis, the lysates were immunoblotted for pTie2 (Y992), pSTAT3 (Y705), and pAkt (S473).
To investigate the effects of the integrin inhibitor AXT107 on Tie2 signaling, confluent monolayers of microvascular endothelial cells (MECs) on fibronectin-coated dishes were treated with various concentrations of AXT107 followed by exposure to the Tie2 ligands Ang1 or Ang2.
For Ang1/2 signaling investigations, cell culture dishes (10 cm diameter) were coated with 5 μg/ml fibronectin (FN1; Sigma-Aldrich, St. Louis, Mo.) for two hours at 37° C. The FN1 solution was then removed by aspiration and 5×10^6 microvascular endothelial cells (MECs; Lonza, Walkersville, Md.) were plated in EGM-2MV media (Lonza) and cultured for forty-eight hours at 37° C. The cells were then serum starved for sixteen hours in serum-free EGM-2 base media (Lonza). AXT107 (0-100 μM, as indicated) was subsequently added to each culture and incubated for seventy-five minutes at 37° C. The cultures were then treated with 1 mM sodium vanadate (New England Biolabs, Ipswich, Mass.) for fifteen minutes to enhance the phospho-Tie2 signal followed by stimulation with 200 ng/ml angiopoietin (R&D Systems, Minneapolis, Minn.) for an additional fifteen minutes. The cells were then transferred to ice, washed twice with ice cold Dulbecco's phosphate-buffered saline (dPBS) containing Ca^2+ and Mg^2+, and collected by scraping in 500 μl of 1×Blue Loading Buffer (Cell Signaling, Danvers, Mass.). Lysate samples were then sonicated, boiled, and resolved by SDS-PAGE. Specific proteins were identified by Western blot, using the following primary antibodies: Cell Signaling—phospho-Tie2 (Y992) (Cat#: 4221), Tie2 (Cat#: 7403), phospho-Stat3 (Y705) (Cat#: 4113), Stat3 (Cat#: 4904), phospho-Akt (S473) (Cat#: 4058), Akt (Cat#: 9272), phospho-p44/42 MAPK (T202/Y204) (Cat#: 4370), p44/42 MAPK (Cat#: 4695); BD Transduction Laboratories—β1 integrin (Cat#: 610467); Millipore—α5 integrin (Cat#: AB1928) and detected with HRP-conjugated goat anti-rabbit and sheep anti-mouse secondary antibodies (GE healthcare).

Akt = assay: Western blot of phospho-Akt (S473) in MEC lysates treated with Ang2 and AXT107; type: cell-based, human
Experimental: as §1
(§2) For Ang1/2 signaling investigations, cell culture dishes (10 cm diameter) were coated with 5 μg/ml fibronectin (FN1; Sigma-Aldrich, St. Louis, Mo.) for two hours at 37° C. The FN1 solution was then removed by aspiration and 5×10^6 microvascular endothelial cells (MECs; Lonza, Walkersville, Md.) were plated in EGM-2MV media (Lonza) and cultured for forty-eight hours at 37° C. […] Specific proteins were identified by Western blot, using the following primary antibodies: Cell Signaling—phospho-Tie2 (Y992) (Cat#: 4221), Tie2 (Cat#: 7403), phospho-Stat3 (Y705) (Cat#: 4113), Stat3 (Cat#: 4904), phospho-Akt (S473) (Cat#: 4058), Akt (Cat#: 9272), phospho-p44/42 MAPK (T202/Y204) (Cat#: 4370), p44/42 MAPK (Cat#: 4695); BD Transduction Laboratories—β1 integrin (Cat#: 610467); Millipore—α5 integrin (Cat#: AB1928) and detected with HRP-conjugated goat anti-rabbit and sheep anti-mouse secondary antibodies (GE healthcare).

F-actin = F-actin immunofluorescence in MEC monolayers; type: cell-based, human; details: 200 ng/ml Ang2, increasing concentrations of AXT107
Experimental: The jaggedness of these junctions is related to the structure of actin within the cell.
Glass-bottomed, 96-well plates with half well size were coated with 10 μg/ml FN1 for two hours at 37° C. The FN1 solution was then removed by aspiration and the plate seeded with 4×10^3 MECs in EGM-2MV media. After twenty-four hours, the cells were washed once with dPBS containing Ca^2+ and Mg^2+ to remove dead cells and the cells were allowed to grow for an additional twenty-four hours. For three-hour duration treatments (i.e., VE-cadherin), cells were washed twice with dPBS containing Ca^2+ and Mg^2+ and serum starved in EBM-2 for ninety minutes. The media was then removed and the cells were treated for three hours with 100 μl of EBM-2 media containing 200 ng/ml Ang2 or PBS and varying concentrations of AXT107 or DMSO. For fifteen minute-treated samples (i.e., phospho-Tie2), the cells were serum starved in EBM-2 media for 165 minutes, incubated for ninety minutes with varying concentrations of AXT107 or DMSO in EBM-2, and finally stimulated for fifteen minutes with 200 ng/ml Ang2 or PBS supplemented with peptide to retain the same concentrations. These times were chosen so that both treatment procedures would be completed at the same time. The cells were then washed twice with cold dPBS containing Ca^2+ and Mg^2+ and fixed in 10% neutral buffered formalin for fifteen minutes. […]

[2] = test system: myosin light chain 2 (MLC2); assay: Western blot of pMLC2 in MECs treated with Ang2 and AXT107; type: cell-based, human; details: AXT107 and 200 ng/ml Ang2
Experimental: Phosphorylation of Tie2 is known to stimulate the Rap1-GTPase pathway, leading to a reduction in the phosphorylation of the downstream motor protein myosin light chain 2 (MLC2) associated with actin rearrangement.
as §2, with “forty-eight hours at 37° C. The cells were then serum starved for sixteen hours in serum-free EGM-2 base media (Lonza). AXT107 (0-100 μM, as indicated) was subsequently added to each culture and incubated for seventy-five minutes at 37°” for “forty-eight hours at 37°”

T1 sequence (P08648 42-894 limits assumed): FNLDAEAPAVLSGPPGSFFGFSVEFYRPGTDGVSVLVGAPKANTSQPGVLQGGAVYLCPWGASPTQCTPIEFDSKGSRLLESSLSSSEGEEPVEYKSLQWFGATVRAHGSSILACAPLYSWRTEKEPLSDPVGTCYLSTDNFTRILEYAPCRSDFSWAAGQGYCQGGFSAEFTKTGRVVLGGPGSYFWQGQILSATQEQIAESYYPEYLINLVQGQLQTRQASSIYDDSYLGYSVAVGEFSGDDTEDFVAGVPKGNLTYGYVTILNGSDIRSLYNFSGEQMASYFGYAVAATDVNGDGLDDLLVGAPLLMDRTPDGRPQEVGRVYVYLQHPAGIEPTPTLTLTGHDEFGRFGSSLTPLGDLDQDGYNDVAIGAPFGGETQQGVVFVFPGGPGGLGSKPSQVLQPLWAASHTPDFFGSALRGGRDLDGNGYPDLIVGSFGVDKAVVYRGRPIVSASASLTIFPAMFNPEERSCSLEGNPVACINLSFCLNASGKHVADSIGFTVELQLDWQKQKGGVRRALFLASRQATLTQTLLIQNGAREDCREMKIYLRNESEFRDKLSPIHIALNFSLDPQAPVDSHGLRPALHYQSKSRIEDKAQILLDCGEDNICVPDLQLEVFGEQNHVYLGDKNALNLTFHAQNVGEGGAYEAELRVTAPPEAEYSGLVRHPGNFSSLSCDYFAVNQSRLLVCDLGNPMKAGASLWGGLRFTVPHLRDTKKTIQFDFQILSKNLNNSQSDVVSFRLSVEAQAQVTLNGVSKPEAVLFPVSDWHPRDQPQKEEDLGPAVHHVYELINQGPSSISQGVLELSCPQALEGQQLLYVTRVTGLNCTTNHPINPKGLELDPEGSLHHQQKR
T1 sequence (P08648 895-1049 limits assumed): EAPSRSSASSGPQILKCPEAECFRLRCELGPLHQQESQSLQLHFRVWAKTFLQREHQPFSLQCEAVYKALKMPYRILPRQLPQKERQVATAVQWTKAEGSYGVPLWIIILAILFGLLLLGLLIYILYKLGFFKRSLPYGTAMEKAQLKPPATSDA
T1 sequence (P05556 21-798): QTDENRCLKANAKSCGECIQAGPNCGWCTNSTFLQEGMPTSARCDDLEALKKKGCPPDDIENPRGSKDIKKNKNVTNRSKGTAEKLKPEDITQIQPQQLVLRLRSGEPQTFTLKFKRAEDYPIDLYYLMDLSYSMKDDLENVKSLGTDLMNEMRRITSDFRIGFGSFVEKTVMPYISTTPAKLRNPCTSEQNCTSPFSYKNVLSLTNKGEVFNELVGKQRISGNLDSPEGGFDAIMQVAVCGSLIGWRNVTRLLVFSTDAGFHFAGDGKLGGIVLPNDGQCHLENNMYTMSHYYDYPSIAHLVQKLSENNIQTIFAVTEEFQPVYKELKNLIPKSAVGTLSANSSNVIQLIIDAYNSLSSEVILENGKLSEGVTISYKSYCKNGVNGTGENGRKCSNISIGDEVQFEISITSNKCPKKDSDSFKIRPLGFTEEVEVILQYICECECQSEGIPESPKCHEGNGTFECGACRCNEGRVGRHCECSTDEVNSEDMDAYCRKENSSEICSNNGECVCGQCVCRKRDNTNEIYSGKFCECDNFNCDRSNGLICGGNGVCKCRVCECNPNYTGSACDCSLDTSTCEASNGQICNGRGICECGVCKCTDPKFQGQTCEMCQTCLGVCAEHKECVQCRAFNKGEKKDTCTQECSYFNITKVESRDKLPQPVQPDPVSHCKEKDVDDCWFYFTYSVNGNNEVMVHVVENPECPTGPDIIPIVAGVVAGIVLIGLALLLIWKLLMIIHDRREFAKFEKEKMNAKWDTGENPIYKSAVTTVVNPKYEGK

LRRFSTAPFAFIDINDVINF [AXT107]
interactions between α5 and β1 integrin subunits [1]: significantly reduced | Tie2 phosphorylation (Tie2; AXT107 0-100 μM, then 200 ng/ml Ang2 15 min): increased phosphorylation; also recorded: significant, dose-dependent increase | Ang1 activity (Tie2 phosphorylation) (Tie2; AXT107 followed by Ang1, data not shown): did not significantly influence | total protein levels of Tie2 (Tie2; AXT107 with angiopoietin): remained unchanged; also recorded: does not influence total levels of Tie2 | phosphorylation by peptide alone (Tie2; in absence of either ligand): not induced | Akt phosphorylation (Akt): increased phosphorylation | actin fiber arrangement (F-actin): became more cortical | phosphorylation of MLC2 [2]: reduced in a dose-dependent manner
